For orientation: pEC50 means the EC50 on a negative log10 scale, so that one unit is a factor of ten. Read a low pEC50 as a high EC50. What is called pIC50 is the negative decadic logarithm of the IC50, by convention in mol/L. By pKd is commonly meant −log10 of the Kd, conventionally taken in molar units. Lower therefore signals a large Kd. The half-life is the time in which the quantity being followed falls by half. A higher half-life goes with slow loss. As a reminder, the solubility is how much of the substance goes into solution per volume. A high value points to a readily soluble substance.

pEC50, pIC50, pKd: −log10 of the molar value.

Data on 19 compounds can be found in ChEMBL document CHEMBL2417540, “Medicinal chemistry of nicotinamide phosphoribosyltransferase (NAMPT) inhibitors” (J Med Chem, 2013).

The test system of one data set is HCT-116. The data set can be described thus: Cytotoxicity against human HCT116 cells. Type of data set: functional, cell-based.
The target of data set [1] is T1, Nicotinamide phosphoribosyltransferase (Homo sapiens, UniProt P43490). As to the kind of experiment: Inhibition of NAMPT (unknown origin).
T1 sequence (P43490 whole entry): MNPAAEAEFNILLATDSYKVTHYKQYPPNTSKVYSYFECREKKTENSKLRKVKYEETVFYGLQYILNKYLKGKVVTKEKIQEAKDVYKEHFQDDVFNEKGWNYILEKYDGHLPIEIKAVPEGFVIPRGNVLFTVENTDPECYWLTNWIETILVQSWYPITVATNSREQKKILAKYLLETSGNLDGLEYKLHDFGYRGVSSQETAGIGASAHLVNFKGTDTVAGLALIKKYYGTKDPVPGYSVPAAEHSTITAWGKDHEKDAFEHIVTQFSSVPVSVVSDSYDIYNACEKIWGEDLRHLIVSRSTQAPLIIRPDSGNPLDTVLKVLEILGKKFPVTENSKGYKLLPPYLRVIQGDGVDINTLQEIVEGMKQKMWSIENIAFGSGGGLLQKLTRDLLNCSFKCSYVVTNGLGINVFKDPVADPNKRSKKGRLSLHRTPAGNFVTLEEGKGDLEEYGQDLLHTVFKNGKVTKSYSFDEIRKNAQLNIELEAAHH
Data set [2] concerns A2780. As to the kind of experiment: Cytotoxicity against human A2780 cells. Type of data set: functional, cell-based.
Data set [3] deals with A2780. The data set can be described thus: Cytotoxicity against human A2780 cells after 72 hrs by SRB assay. It counts as functional, cell-based. The conditions noted are these: A2780, 72 h.
Data set [4] addresses T1, Nicotinamide phosphoribosyltransferase. As to the kind of experiment: Inhibition of recombinant his-tagged NAMPT (unknown origin) expressed in Escherichia coli after 30 mins.
The nature of data set [5]: Cytotoxicity against human U87 cells by MTT assay. It counts as functional, cell-based, U-87MG ATCC. The settings on record: U-87 MG.
For data set [6], the target named is T1, Nicotinamide phosphoribosyltransferase. As to the kind of experiment: Inhibition of NAMPT in human U87 cells. It counts as cell-based, U-87MG ATCC.
The subject of data set [7] is A2780. The data set can be described thus: Cytotoxicity against human A2780 cells after 72 hrs by WST-1 assay. The settings on record: A2780, 72 h. It counts as functional, cell-based. On the technique in general: Tetrazolium assays rely on reduction of a dye to a coloured formazan, in cell work by metabolically active cells.
The nature of data set [8]: Cytotoxicity against human NYH cells after 3 weeks by clonogenic survival assay. The settings on record: 504 h, read-out: LD50 (the source's name). It counts as functional.
The test system of another data set is WIL2. The data set can be described thus: Cytotoxicity against human W1L2 cells. Type of data set: functional, cell-based.
In data set [9] the target is T1, Nicotinamide phosphoribosyltransferase. The data set can be described thus: Binding affinity to NAMPT (unknown origin).
Data set [10] is described as follows: Cytotoxicity against human SH-SY5Y cells […] after 48 hrs by MTT assay. It counts as functional, cell-based.
Data set [11] can be described thus: Half life in human. Type of data set: ADME, organism-based. The settings on record: in vivo.
The test system of the next data set is K562. The data set can be described thus: Cytotoxicity against human K562 cells after 96 hrs by MTT assay. Type of data set: functional, cell-based. The settings on record: K562, 96 h.
Data set [12] in a line: Solubility of the compound in water. Type of data set: physicochemical.

`C#CCN(Cc1cc2c(=O)n(C)c(CN3CCN(CCCN)CC3)nc2cc1Cl)c1ccc(C(=O)NCc2cccnc2)cc1` gave a negative-log EC50 (pEC50) in the data set on HCT-116 of 7.74. The same measure, in the same setting: the result for `CC(C)=CCN(Cc1cc2c(=O)n(C)nnc2cc1Cl)c1ccc(C(=O)NCc2cccnc2)cc1` reads 8.52. For `O=C(NCc1cccnc1)Nc1ccc(S(=O)(=O)c2ccccc2OC(F)(F)F)cc1`, the negative-log IC50 (pIC50) in data set [1] was 8.92. The same compound gave a pEC50 in the data set on A2780 [2] of 8.15. In the data set with A2780 [3], `N#C/N=C(\NCc1ccc(S(=O)(=O)c2cccc(Cl)c2)cc1)Nc1ccncc1` showed a pEC50 of 8.39. Regarding `O=C(/C=C/c1cccnc1)Nc1ccc(S(=O)(=O)c2ccccc2)cc1`, in data set [4], the pIC50 was 8.52. The pEC50 with A2780 [3] was 6.61. In data set [5], `O=C1c2cc(S(=O)(=O)O)ccc2-c2ccc(S(=O)(=O)O)cc21` had a negative logarithm of the EC50 (pEC50) of 3.47. In turn, `Nc1c(-c2ccc3ccccc3n2)c2ccc([N+](=O)[O-])cc2c(=O)n1Cc1ccccc1` showed a negative-log EC50 (pEC50) in data set [5] of 3.49. Moreover, the negative-log IC50 (pIC50) in data set [6] is > 5.30.

In the data set with A2780 [7], `O=c1c(NCCCCCCS(=O)(=O)N(OCCN2CCOCC2)C2CCCCC2)c(Nc2ccncc2)c1=O` had a pIC50 of 10.52.

Turning to `O=C(/C=C/c1cccnc1)NCCCCCCS(=O)(=O)N(CCN1CCOCC1)OCC1CCCCC1`, in the data set with A2780 [2], the pIC50 is 9.80. Regarding `N#C/N=C(\NCCCCCCC(=O)N(Cc1ccccc1)OC1CCCCC1)Nc1ccncc1`, the CC50 in data set [8] amounted to 0.02 nM. In the data set with WIL2, `C#CCN(Cc1cc2c(=O)n(C)c(CN3CCN(C)CC3)nc2cc1Br)c1ccc(C(=O)NCc2cccnc2)cc1` had a pEC50 of 9.31. The compound also showed a pIC50 in [1] of 9.64. Consider `O=C(/C=C/c1ccc[n+]([C@@H]2O[C@H](CO)[C@@H](O)[C@H]2O)c1)NCCCCC1CCN(C(=O)c2ccccc2)CC1`, for which the pKd in data set [9] was 4.35. `Cc1ncsc1C(=O)N1CCC(CCCCNC(=O)c2cc3cnccc3[nH]2)CC1` showed a pEC50 in the data set with A2780 [3] of 9.00. Still for that read-out and setting: for `O=C(NCCCCC1CCN(C(=O)c2ccccc2)CC1)c1cc2ccncc2s1` the value was 8.92. In data set [10], `O=C(c1ccccc1)N1CCC(CCCCn2cc(/C=C/c3cccnc3)nn2)CC1` showed a negative-log IC50 (pIC50) of 5.52. `O=C(NCCCCCCS(=O)(=O)N(OCCN1CCOCC1)C1CCCCC1)NCc1cccnc1` gave a pIC50 in the data set on A2780 [2] of 9.05. On to `N#CN=C(NCCCCCCOc1ccc(Cl)cc1)Nc1ccncc1` [CHS-828], for which the half-life in [11] is 3 h. Further, the CC50 in [8] was found to be 1.7 nM.

`O=C(/C=C/c1cccnc1)NCCCCC1CCN(C(=O)c2ccccc2)CC1` [DAPORINAD] gave a pIC50 with K562 of 8.14. For the same compound, the CC50 in data set [8] worked out at 1.5 nM. For the compound `COCCOCCOCCOCCOC(=O)OC[n+]1ccc(N/C(=N/C#N)NCCCCCCOc2ccc(Cl)cc2)cc1.[Cl-]` [TEGLARINAD CHLORIDE], the solubility in data set [12] was ≤ 97 mg/mL.
